In US12714688B2, “Margaric acid decreases PIEZ02-mediated pain” (The United States of America, as represented by The …, priority 2020, dated 2026):
“Also recorded” adds a separate entry of the source.

Key:
[1] = test system: human iPSC-derived neurons; assay: Voltage-activated currents in human iPSC-derived neurons; format: cell-based; conditions: 300 μM vs control
Description: Human iPSC-derived neurons: For generating human peripheral sensory neuron cultures, a version of the healthy control WTC11 iPSC line was used. This line was previously engineered to harbor a doxycycline-inducible NGN2-BRN3A construct that enables rapid and efficient sensory neuron differentiation. Undifferentiated iPSCs were maintained in E8 flex medium (invitrogen) on polystyrene plates coated with Matrigel® (Corning). The medium was exchanged every 1-3 days, and the cells were passaged every 4-7 days with Accutase® (Invitrogen) and plated overnight with 10 μM of the ROCK-inhibitor Y-27632 (Tocris). For sensory neuron differentiation, iPSCs were seeded at 20,000 cells·(cm2)−1 in neural differentiation medium (NDM) on Matrigel®-coated plates. The cells were then re-plated after 48 hours at 50,000 cells·(cm^2)^−1 onto dishes coated with polyethylenimine (Sigma-Aldrich) and laminin (Invitrogen). NDM consisted of (all from Invitrogen) 1:1 DMEM/F12 and Neurobasal™ medium supplemented with N2, B27, and GlutaMAX™ at manufacturer-recommended dilution. 2 μg·ml^−1 doxycycline (Clontech) was included in the medium for the duration of the culture, 10 μM. Y-27632 was supplemented for the first 48 hours, and the following neurotrophic factors were added from day 8 onward at 10 ng/ml each (all from R&D systems): BDNF, GDNF, β-NGF, and NT-3. […]

[2] = biological target: T1, endogenous PIEZO2 (Homo sapiens, UniProt Q9H5I5); assay: Whole-cell patch-clamp of mechanically activated currents in human iPSC-derived neurons; format: cell-based
T1 construct: endogenous in cells; host or cells: sensory neurons differentiated from human WTC11 iPSC line
T1 sequence (Q9H5I5 whole entry): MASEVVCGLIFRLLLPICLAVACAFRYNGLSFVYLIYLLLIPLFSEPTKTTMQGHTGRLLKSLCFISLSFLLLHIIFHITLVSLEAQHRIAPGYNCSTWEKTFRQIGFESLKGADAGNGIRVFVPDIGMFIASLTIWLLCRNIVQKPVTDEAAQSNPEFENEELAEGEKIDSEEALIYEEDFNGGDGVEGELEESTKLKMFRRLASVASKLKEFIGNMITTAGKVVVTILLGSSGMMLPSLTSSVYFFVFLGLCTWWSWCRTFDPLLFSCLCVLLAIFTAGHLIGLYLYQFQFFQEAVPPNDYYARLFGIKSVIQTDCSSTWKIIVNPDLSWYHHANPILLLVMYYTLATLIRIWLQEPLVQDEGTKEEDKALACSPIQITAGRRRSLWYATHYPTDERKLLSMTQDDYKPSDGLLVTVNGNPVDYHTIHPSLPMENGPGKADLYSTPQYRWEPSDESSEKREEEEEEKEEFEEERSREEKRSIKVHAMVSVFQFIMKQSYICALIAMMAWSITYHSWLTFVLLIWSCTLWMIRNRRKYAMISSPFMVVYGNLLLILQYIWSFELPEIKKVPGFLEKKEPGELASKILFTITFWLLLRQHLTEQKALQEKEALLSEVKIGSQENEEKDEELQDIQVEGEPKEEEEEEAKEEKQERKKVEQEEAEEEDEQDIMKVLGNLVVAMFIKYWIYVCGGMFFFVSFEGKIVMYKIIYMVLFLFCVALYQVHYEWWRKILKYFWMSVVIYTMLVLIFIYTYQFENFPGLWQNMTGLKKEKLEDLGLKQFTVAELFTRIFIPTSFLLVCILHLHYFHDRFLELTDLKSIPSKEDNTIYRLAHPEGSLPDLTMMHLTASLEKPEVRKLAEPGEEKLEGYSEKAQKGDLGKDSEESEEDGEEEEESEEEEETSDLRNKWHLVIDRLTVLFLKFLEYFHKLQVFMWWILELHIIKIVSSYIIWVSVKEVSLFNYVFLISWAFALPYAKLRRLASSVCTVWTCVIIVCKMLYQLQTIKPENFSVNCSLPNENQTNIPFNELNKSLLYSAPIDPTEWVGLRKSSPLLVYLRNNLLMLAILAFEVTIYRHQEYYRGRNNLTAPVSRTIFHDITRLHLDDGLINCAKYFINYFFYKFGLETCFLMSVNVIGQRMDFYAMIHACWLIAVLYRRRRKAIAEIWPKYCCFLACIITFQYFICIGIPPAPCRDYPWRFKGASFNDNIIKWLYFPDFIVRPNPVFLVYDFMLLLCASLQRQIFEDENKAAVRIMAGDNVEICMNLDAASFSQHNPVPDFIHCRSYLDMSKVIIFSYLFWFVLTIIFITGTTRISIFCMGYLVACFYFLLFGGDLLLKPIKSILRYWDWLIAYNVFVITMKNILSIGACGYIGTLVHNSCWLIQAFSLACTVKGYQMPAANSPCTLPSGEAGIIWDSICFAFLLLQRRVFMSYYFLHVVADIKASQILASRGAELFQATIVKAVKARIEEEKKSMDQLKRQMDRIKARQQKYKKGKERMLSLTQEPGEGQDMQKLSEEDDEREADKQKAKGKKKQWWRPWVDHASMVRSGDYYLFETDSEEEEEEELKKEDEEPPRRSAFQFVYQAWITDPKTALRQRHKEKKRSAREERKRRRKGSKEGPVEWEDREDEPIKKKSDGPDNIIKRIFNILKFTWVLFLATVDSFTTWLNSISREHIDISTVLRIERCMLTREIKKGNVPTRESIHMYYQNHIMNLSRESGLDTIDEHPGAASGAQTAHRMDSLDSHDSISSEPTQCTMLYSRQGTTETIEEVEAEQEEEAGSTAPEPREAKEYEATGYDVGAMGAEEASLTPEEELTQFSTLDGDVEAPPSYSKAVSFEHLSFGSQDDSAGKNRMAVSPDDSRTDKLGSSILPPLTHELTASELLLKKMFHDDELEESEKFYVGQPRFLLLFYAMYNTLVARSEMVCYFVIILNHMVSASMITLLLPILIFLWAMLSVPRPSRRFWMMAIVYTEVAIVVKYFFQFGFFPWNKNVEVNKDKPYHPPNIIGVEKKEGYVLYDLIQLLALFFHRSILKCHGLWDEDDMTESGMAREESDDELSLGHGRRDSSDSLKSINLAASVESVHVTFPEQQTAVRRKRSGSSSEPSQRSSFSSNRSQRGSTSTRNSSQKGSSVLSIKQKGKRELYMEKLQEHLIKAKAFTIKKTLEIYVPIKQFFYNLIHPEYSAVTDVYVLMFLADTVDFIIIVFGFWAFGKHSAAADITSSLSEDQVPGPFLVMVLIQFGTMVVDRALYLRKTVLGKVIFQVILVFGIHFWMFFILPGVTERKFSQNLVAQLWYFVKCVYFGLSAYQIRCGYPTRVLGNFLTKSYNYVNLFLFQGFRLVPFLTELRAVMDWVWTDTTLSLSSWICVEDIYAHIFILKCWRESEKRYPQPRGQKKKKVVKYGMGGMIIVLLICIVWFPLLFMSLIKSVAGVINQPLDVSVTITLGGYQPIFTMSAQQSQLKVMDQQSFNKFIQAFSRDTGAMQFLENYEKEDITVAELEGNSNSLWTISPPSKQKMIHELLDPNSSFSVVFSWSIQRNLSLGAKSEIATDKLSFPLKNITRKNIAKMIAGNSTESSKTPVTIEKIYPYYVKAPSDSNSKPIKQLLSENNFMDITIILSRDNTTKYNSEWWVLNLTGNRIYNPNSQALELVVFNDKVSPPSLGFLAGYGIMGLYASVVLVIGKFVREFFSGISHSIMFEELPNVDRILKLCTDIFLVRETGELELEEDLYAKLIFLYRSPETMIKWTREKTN
Description: Human iPSC-derived neurons: For generating human peripheral sensory neuron cultures, a version of the healthy control WTC11 iPSC line was used. This line was previously engineered to harbor a doxycycline-inducible NGN2-BRN3A construct that enables rapid and efficient sensory neuron differentiation. Undifferentiated iPSCs were maintained in E8 flex medium (invitrogen) on polystyrene plates coated with Matrigel® (Corning). The medium was exchanged every 1-3 days, and the cells were passaged every 4-7 days with Accutase® (Invitrogen) and plated overnight with 10 μM of the ROCK-inhibitor Y-27632 (Tocris). For sensory neuron differentiation, iPSCs were seeded at 20,000 cells·(cm2)−1 in neural differentiation medium (NDM) on Matrigel®-coated plates. The cells were then re-plated after 48 hours at 50,000 cells·(cm^2)^−1 onto dishes coated with polyethylenimine (Sigma-Aldrich) and laminin (Invitrogen). NDM consisted of (all from Invitrogen) 1:1 DMEM/F12 and Neurobasal™ medium supplemented with N2, B27, and GlutaMAX™ at manufacturer-recommended dilution. 2 μg·ml^−1 doxycycline (Clontech) was included in the medium for the duration of the culture, 10 μM.

[3] = test system: mechano-activated currents of rat DRG neurons; assay: Whole-cell patch-clamp of mechano-activated currents in rat DRG neurons; conditions: 300 μM for 18 h
[4] = test system: Piezo2 V14; assay: Whole-cell patch-clamp of N2A^Piezo1−/− cells transfected with Piezo2 V14; conditions: 300 μM; 18 h
[5] = test system: rat DRG neurons; assay: Current-clamp recording of action potentials elicited by mechanical stimuli in rat DRG neurons; conditions: 300 μM
[6] = test system: mice; assay: Von Frey test, repeated injury model (daily hind paw injection); format: in vivo, mouse
Method: Mice behavior: MA solution: MA was prepared in sterile Dulbecco's phosphate buffered saline, with 70 g/L fatty acid free bovine serum albumin (BSA; Sigma), and MA to a final concentration of 5 mM. The solution was filtered to avoid undissolved materials.
Subjects: For the experiment 8-12 weeks old male and female C57B16/J mice (N=12; control n=6; male=3, female=3) MA (n=6; male=3, female=3) per experiment were used. Mice were housed under a 12 hr light dark cycle and granted access to food and water ad libitum.
Injections were given as follows: Mouse is restrained by their tail, foot, and over shoulders scruff. The compound is delivered using a 3/10 cc insulin syringe into the plantar surface of the back foot of each mouse. The beveled needle is inserted at a 35-40° angle and 20-50 μl of the compound is injected subcutaneously. […]
Mechanical threshold (Von Frey test): Punctate mechanical allodynia was measured using Von Frey monofilaments (Stoelting, Inc.) in varying grams of force (0.008-1 g). Animals were placed in small enclosures over a wire mesh and the plantar of the hind paw was poked with a filament and responses were recorded. Withdrawal responses were recorded when the animal lifted, shook, or licked the paw in response to stimulus presentation. […]

[7] = test system: PIEZO2-PIEZO1 beam chimera; assay: Whole-cell patch-clamp of N2A^Piezo1−/− cells transfected with Piezo2-Piezo1 beam chimera
[8] = biological target: endogenous PIEZO2 currents in MCC13 (Homo sapiens, UniProt Q9H5I5); assay: Whole-cell patch-clamp of mechanically stimulated MCC13 cells; conditions: 300 μM
endogenous PIEZO2 currents in MCC13, sequence (Q9H5I5 whole entry): as above

[9] = biological target: human PIEZO2 (Homo sapiens, UniProt Q9H5I5); assay: Whole-cell patch-clamp of N2A^Piezo1−/− cells transfected with human Piezo2; conditions: 300 μM; 18 h
human PIEZO2, sequence (Q9H5I5 whole entry): as above

[10] = also human Piezo2 in N2A^Piezo1−/− cells (FIG. 14c-d)

- effect on PIEZO2 currents ([2]; 50 μM each day for 5 days): significantly decreased PIEZO2 currents
- effect on displacement threshold [8]: increasing the displacement threshold
- mechano-currents of human PIEZO2 [9]: confirmed these results
Structure (SMILES): CCCCCCCCCCCCCCCCC(=O)O [MA, heptadecanoic acid]
- voltage-activated inward Na+ and outward K+ currents [1]: did not change voltage-activated inward Na+ and outward K+ currents
- effect on endogenous PIEZO2 currents ([2]; 300 and 600 μM overnight): significantly reduced endogenous PIEZO2 currents
- mechanical threshold needed to activate the human channel [2, 10]: increased the mechanical threshold needed to activate the human channel
- time constant of inactivation [2, 10]: without altering the time constant of inactivation
- effect on mechano-activated currents [3]: decreases mechano-activated currents in rat DRG neurons; also recorded: inhibit all mechanosensitive currents
- effect on activity of Piezo2 V14 [4]: inhibited the activity
- action potential firing elicited by mechanical stimuli [5]: reduces neuronal action potential firing elicited by mechanical stimuli
- hypersensitivity to punctate touch (tactile allodynia) ([6]; MA 5 mM injected daily into hind paw for 7 days): ameliorates hypersensitivity to touch after injury; also recorded: selectively decreases tactile allodynia; also recorded: protects against tactile allodynia; also recorded: do not develop; also recorded: failed to develop this type of heightened withdrawal response
- baseline touch responses ([6]; acute sub-dermal injection): had no effect on baseline touch responses
- sensitivity of chimera to MA inhibition ([7]; 100 μM overnight, compared with PIEZO2): much more sensitive to MA inhibition
- mechanical stimulus needed to open chimera ([7]; MA 100 μM overnight): requires a higher mechanical stimulus to open
- effect on mechano-activated (endogenous PIEZO2) currents [8]: decreases mechano-activated currents; also recorded: decreases endogenous PIEZO2 currents
